In patent US12419890B2, “Administration of sumo-activating enzyme inhibitor and checkpoint inhibitors” (Takeda Pharmaceutical Company Limited, priority 2019, dated 2025):

Legend:
[1] = target: T1, SUMO-activating enzyme (Homo sapiens, UniProt Q9UBT2); test: biochemical assays of SUMO-activating enzyme
T1 sequence (Q9UBT2 1-640): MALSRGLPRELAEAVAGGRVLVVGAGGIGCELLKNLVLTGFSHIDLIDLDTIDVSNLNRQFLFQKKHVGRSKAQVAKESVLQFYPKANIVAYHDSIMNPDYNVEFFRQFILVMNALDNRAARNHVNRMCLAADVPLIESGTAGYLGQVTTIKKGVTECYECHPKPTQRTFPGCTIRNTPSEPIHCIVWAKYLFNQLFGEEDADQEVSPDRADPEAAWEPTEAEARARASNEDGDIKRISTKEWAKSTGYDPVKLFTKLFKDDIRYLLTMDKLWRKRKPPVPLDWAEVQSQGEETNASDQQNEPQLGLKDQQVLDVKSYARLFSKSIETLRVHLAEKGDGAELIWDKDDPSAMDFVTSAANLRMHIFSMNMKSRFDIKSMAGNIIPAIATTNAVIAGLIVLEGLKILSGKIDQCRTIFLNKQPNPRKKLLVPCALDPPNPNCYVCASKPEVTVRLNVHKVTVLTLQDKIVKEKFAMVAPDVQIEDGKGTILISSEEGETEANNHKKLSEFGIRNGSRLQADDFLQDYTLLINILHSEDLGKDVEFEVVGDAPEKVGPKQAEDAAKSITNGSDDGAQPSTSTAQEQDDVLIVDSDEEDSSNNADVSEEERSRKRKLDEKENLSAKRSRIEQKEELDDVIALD
T1 sequence (Q9UBE0 1-346 partner): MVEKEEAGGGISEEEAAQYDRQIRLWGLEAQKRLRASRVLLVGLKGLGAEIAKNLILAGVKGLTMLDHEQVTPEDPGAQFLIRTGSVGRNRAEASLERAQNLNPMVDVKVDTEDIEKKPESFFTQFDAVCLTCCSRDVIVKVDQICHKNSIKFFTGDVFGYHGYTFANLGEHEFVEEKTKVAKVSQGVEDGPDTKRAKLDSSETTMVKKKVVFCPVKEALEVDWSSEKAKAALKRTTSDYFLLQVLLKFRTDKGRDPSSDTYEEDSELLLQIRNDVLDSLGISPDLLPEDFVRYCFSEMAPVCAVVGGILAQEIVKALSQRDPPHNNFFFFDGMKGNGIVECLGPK
Excerpt: (§1) SAE inhibitors, as disclosed herein, are described, for example, in US 2016/0009744 and U.S. Pat. No. 9,695,154. They may be prepared by methods known to one skilled in the art and/or according to the methods described in US 2016/0009744 and U.S. Pat. No. 9,695,154, which is hereby incorporated by reference in its entirety. Central to the mechanism of action of useful SAE inhibitors, such as Compound I-263a, in combinations and methods of the present disclosure is production of type 1 IFNs and induction of an innate immune response with activation of dendritic cells, natural killer (NK) cells and macrophages.

[2] = test system: SUMO-activating enzyme and SUMOylation; test: inhibition of SUMO-activating enzyme and SUMOylation in cultured tumor cell lines; assay type: cell-based; conditions: cultured mouse and human tumor cell lines
Excerpt: as §1

With `Cc1sc(C(=O)c2cncnc2N[C@@H]2C[C@H](COS(N)(=O)=O)[C@@H](O)C2)cc1[C@@H]1NCCc2ccc(Cl)cc21` [Compound I-263a, [(1R,2S,4R)-4-{[5-({4-[(1R)-7-chloro-1,2,3,4-tetrahydroisoquinolin-1-yl]-5-methyl-2-thienyl}carbonyl)pyrimidin-4-yl]amino}-2-hydroxycyclopentyl]methyl sulfamate] the “inhibition of SUMO-activating enzyme activity” value ([1]; mechanism-based inhibitor forming a covalent adduct with SUMO) was “potently inhibits enzyme activity”, the “selectivity for SUMO-activating enzyme” value ([1]; over ubiquitin-activating enzymes, Nedd8-activating enzyme, and autophagy related 7 enzyme) was “Strong selectivity” and the “inhibition of SUMO-activating enzyme and SUMOylation” value [2] was “Selective and potent inhibition”.
